Source: US12503438B2, “Compounds for the treatment of kinase-dependent disorders” (Exelixis, Inc., priority 2019, dated 2025)

Tests used:
Mer = target: T1, Mer (Homo sapiens, UniProt Q12866); experiment: Mer autophosphorylation ELISA in transient transfected 293A cells; format: cell-based; settings: cellular activity; MERTK-transfected 293A cells, phospho-Mer ELISA
T1 construct: host or cells: 293A cells (Thermo Fisher #R70507)
T1 sequence (Q12866 21-999): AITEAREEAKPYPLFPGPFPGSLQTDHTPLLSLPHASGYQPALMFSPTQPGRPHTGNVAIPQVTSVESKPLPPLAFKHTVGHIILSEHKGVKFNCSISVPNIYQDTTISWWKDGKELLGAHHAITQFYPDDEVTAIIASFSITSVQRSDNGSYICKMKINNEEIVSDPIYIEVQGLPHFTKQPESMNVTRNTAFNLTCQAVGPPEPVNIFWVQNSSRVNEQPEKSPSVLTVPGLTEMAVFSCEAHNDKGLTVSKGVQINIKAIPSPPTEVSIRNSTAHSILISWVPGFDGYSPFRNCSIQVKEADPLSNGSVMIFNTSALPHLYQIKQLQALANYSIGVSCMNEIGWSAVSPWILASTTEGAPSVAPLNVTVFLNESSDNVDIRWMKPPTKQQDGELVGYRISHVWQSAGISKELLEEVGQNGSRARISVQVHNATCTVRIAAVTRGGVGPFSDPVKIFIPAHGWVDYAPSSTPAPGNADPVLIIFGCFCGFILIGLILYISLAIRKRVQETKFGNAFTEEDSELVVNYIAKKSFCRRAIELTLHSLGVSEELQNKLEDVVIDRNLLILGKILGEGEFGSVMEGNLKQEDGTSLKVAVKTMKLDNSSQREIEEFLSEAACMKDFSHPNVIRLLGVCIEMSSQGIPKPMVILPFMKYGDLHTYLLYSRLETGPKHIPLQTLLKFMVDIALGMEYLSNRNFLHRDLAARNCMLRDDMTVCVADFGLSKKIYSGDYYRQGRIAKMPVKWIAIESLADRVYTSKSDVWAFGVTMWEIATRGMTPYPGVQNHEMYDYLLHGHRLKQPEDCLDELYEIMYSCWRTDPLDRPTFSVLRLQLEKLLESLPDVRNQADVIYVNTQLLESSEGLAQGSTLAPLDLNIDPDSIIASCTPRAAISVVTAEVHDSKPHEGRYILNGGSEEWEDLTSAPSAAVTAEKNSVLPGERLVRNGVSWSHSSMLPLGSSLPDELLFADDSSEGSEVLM
Summary of the method: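 293A cells transiently transfected with human MERTK DNA, then treated 1 h with 8-point compound dilutions in serum-free medium (0.3% DMSO). Phospho-Mer in lysates quantified by sandwich ELISA against phospho-Mer standard; normalised to DMSO (100%) and reference inhibitor (0%), IC50 from 4-parameter logistic fit.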

Met = Met (Homo sapiens, UniProt P08581); experiment: Met autophosphorylation ELISA in PC-3 cells; format: cell-based; set-up: endogenous in cells; host or cells: PC-3 prostate cancer cells (ATCC #CRL-1435); settings: cellular activity, HGF-stimulated, phospho-Met ELISA, read-out: c-Met IC50
Summary of the method: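 Phospho-Met (panTyr) sandwich ELISA on lysates of PC-3 cells given 100 ng/mL HGF for 10 min after 1 h compound exposure (8-point curve, 0.3% DMSO) following 3 h serum starvation. Normalised to HGF-stimulated DMSO and reference-inhibitor wells; 4-parameter logistic IC50.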

Sequence of Met (P08581 25-1390): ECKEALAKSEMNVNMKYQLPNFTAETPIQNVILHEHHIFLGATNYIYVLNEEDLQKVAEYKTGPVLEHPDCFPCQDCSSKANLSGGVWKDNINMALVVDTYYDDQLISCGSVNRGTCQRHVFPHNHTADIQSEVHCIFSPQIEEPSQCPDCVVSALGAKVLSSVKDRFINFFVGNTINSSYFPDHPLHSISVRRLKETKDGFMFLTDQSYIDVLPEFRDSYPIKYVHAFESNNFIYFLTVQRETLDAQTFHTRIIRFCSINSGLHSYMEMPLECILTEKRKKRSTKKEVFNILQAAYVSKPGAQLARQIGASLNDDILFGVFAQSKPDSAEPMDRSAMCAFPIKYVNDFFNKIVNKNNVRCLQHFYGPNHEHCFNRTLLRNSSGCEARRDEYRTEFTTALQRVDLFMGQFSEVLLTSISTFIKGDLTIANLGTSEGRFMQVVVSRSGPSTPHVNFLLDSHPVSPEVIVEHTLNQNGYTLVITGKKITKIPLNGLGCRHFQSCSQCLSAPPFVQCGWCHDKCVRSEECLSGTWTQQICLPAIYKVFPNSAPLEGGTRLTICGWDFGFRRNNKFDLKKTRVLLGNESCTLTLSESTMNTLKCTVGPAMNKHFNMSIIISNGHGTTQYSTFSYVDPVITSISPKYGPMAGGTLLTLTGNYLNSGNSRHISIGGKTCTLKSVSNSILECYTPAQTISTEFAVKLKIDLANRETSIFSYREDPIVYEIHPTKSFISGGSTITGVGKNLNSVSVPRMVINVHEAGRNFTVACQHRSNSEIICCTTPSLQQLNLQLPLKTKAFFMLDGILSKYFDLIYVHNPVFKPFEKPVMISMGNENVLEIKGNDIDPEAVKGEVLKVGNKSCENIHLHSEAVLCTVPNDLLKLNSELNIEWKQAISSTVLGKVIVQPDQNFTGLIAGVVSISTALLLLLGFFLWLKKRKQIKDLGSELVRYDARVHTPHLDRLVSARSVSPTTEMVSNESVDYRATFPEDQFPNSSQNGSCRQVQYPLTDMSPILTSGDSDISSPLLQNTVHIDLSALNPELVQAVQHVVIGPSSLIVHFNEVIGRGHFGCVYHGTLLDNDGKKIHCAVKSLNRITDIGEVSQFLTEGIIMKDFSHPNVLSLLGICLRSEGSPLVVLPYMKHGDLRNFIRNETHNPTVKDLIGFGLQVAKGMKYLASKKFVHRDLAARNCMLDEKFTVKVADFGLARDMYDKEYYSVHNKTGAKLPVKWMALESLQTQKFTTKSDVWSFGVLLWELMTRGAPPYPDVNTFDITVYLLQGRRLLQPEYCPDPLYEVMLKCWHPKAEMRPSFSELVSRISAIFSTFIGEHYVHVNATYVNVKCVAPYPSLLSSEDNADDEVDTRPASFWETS

IC50 (Mer) [nM] | IC50 (Met) [nM] | Compound
10 to 100 | 10 to 100 | Cc1cc2c(Oc3cc(F)c(NC(=O)C4(C(=O)Nc5ccc(F)cc5)CC4)cc3F)ccnc2cc1-c1ncc[nH]1 [Compound 121, 1-N′-[2,5-Difluoro-4-[7-(1H-imidazol-2-yl)-6-methylquinolin-4-yl]oxyphenyl]-1-N-(4-fluorophenyl)cyclopropane-1,1-dicarboxamide]
10 to 100 | 10 to 100 | Cc1cc2c(Oc3ccc(NC(=O)C4(C(=O)Nc5ccc(F)cc5)CC4)cc3F)ccnc2cc1-c1ncc[nH]1 [Compound 122, 1-N′-[3-Fluoro-4-[7-(1H-imidazol-2-yl)-6-methylquinolin-4-yl]oxyphenyl]-1-N-(4-fluorophenyl)cyclopropane-1,1-dicarboxamide]
10 to 100 | 10 to 100 | O=C(Nc1ccc(F)cc1)C1(C(=O)Nc2ccc(Oc3ccnc4cc(-c5cnn(C(F)F)c5)ccc34)c(F)c2)CC1 [Compound 123, 1-N′-[4-[7-[1-(Difluoromethyl)pyrazol-4-yl]quinolin-4-yl]oxy-3-fluorophenyl]-1-N-(4-fluorophenyl)cyclopropane-1,1-dicarboxamide]
10 to 100 | 10 to 100 | O=C(Nc1ccc(F)cc1)C1(C(=O)Nc2ccc(Oc3ccnc4cc(-c5cc6n(n5)CCC6)ccc34)cc2)CC1 [Compound 124, 1-N-[4-[7-(5,6-Dihydro-4H-pyrrolo[1,2-b]pyrazol-2-yl)quinolin-4-yl]oxyphenyl]-1-N′-(4-fluorophenyl)cyclopropane-1,1-dicarboxamide]
